Assay results as given in patent publication US6500853B1, “Inhibitors of phospholipase enzymes” (Genetics Institute, LLC, priority 1998, dated 2002).
One block for each compound: values may come before it.

Tests used:
[1] = target: T1, cPLA2 (Homo sapiens, UniProt P47712); test: Coumarin Assay (cPLA2 inhibition); assay type: biochemical; settings: for inhibition at 12.5 µM: CONCENTRATION 12.5 micromolar; for inhibition at 50 µM: CONCENTRATION 50 micromolar; for inhibition at 100 µM: CONCENTRATION 100 micromolar; for inhibition at 400 µM: CONCENTRATION 400 micromolar
T1 sequence (P47712 1-749): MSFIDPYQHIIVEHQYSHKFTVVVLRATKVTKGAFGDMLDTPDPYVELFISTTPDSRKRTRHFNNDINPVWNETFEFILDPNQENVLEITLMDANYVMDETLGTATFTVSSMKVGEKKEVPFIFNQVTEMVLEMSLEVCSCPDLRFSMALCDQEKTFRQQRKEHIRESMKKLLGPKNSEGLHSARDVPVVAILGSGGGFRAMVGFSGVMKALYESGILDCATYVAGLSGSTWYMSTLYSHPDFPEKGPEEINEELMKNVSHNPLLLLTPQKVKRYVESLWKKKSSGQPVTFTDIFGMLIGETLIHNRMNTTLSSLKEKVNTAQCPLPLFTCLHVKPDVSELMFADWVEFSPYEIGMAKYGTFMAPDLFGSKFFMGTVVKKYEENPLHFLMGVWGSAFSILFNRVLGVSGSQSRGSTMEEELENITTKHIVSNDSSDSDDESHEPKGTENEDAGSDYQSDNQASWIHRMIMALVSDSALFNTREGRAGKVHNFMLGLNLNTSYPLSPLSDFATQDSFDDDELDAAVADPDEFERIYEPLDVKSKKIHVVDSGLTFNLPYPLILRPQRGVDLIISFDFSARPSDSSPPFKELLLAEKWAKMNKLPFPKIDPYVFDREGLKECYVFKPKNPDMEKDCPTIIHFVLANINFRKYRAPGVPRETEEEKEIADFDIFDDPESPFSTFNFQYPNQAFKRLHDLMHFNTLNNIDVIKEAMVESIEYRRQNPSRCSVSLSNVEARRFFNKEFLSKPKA
How it was run: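 Percent inhibition at the stated concentration, from the rate of 460 nm emission rise (360 nm excitation) per minute. Reaction started by adding 4 μg enzyme to compound and 60 μM 7-hydroxycoumarinyl 6-heptenoate in Hepes buffer pH 7.5 with 1 mM EDTA.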

[2] = test system: Rat Carrageenan-Induced Footpad Edema; test: Rat Carrageenan-Induced Footpad Edema Test; assay type: in vivo, male Sprague Dawley rats; settings: footpad volume 3 hours after carrageenan; for inhibition in vivo at 2 mg/kg / inhibition in vivo at 10 mg/kg / inhibition in vivo at 5 mg/kg: Rattus norvegicus, 3 h, read-out: PERCENT INHIBITION; for inhibition in vivo at 2 mg/kg / inhibition in vivo at 10 mg/kg: po; for inhibition in vivo at 2 mg/kg / inhibition in vivo at 10 mg/kg / PERCENT INHIBITION: PO; for inhibition in vivo at 5 mg/kg: iv, IV

Compound: O=C(Nc1ccc2c(c1)c(Cc1ccc(C(=O)O)cc1)cn2C(c1ccccc1)c1ccccc1)OC1CCCC1 [Example 52, 4-[(1-benzhydryl-5-{[(cyclopentyloxy)carbonyl]amino}-1H-indol-3-yl)methyl]benzoic acid]
- inhibition at 19 µM ([1]; CONCENTRATION 19 micromolar, read-out: PERCENT INHIBITION @): 50%
- inhibition at 20 µM ([1]; CONCENTRATION 20 micromolar, read-out: PERCENT INHIBITION @): 50%
- inhibition in vivo at 2 mg/kg ([2]; 2 mg/Kg): -6.75%
- inhibition in vivo at 10 mg/kg ([2]; 10 mg/Kg): 3.33%

Compound: Cc1ccccc1S(=O)(=O)NC(=O)c1ccc(Cc2cn(C(c3ccccc3)c3ccccc3)c3ccc(NC(=O)OC4CCCC4)cc23)cc1 [Example 53, cyclopentyl N-{1-benzhydryl-3-[4-({[(2-methylphenyl)sulfonyl]1amino}carbonyl)benzyl]-1H-indol-5-yl}carbamate]
- PERCENT INHIBITION @ ([1]; CONCENTRATION 11 micromolar): 50%
- PERCENT INHIBITION @ ([1]; CONCENTRATION 15.5 micromolar): 50%
- PERCENT INHIBITION ([2]; 2 mg/Kg): −1.81%
- PERCENT INHIBITION ([2]; 10 mg/Kg): 11.35%

Compound: O=C(Nc1ccc2c(c1)c(Cc1ccc(C(=O)NS(=O)(=O)C(F)(F)F)cc1)cn2C(c1ccccc1)c1ccccc1)OC1CCCC1 [Example 54]
- PERCENT INHIBITION @ ([1]; CONCENTRATION 2.8 micromolar): 50%
- PERCENT INHIBITION @ ([1]; CONCENTRATION 3.9 micromolar): 50%
- PERCENT INHIBITION ([2]; 2 mg/Kg): 2.47%
- PERCENT INHIBITION ([2]; 10 mg/Kg): 14.29%

Compound: O=C(NS(=O)(=O)C(F)(F)F)c1ccc(Cc2cn(C(c3ccccc3)c3ccccc3)c3ccc([N+](=O)[O-])cc23)cc1 [Example 55, N-{4-[(1-benzhydryl-5-nitro-1H-indol-3-yl)methyl]benzoyl}(trifluoro)methanesulfonamide]
- inhibition at 1.35 µM ([1]; CONCENTRATION 1.35 micromolar, read-out: PERCENT INHIBITION @): 50%
- inhibition in vivo at 2 mg/kg ([2]; 2 mg/Kg): 7.02%
- inhibition in vivo at 10 mg/kg ([2]; 10 mg/Kg): 21.5%

Compound: Cc1ccccc1S(=O)(=O)NC(=O)c1ccc(Cc2cn(C(c3ccccc3)c3ccccc3)c3ccc([N+](=O)[O-])cc23)cc1 [Example 56, N-{4-[(1-benzhydryl-5-nitro-1H-indol-3-yl)methyl]benzoyl}-2-methylbenzenesulfonamide]
- inhibition at 0.98 µM ([1]; CONCENTRATION 0.98 micromolar, read-out: PERCENT INHIBITION @): 50%
- inhibition at 1.2 µM ([1]; CONCENTRATION 1.2 micromolar, read-out: PERCENT INHIBITION @): 50%
- inhibition in vivo at 2 mg/kg ([2]; 2 mg/Kg): 4.22%
- inhibition in vivo at 10 mg/kg ([2]; 10 mg/Kg): 9.34%

Compound: Cc1ccccc1S(=O)(=O)NC(=O)c1ccc(Cc2cn(C(c3ccccc3)c3ccccc3)c3ccc(Br)cc23)cc1 [Example 57, N-{4-[(1-benzhydryl-5-bromo-1H-indol-3-yl)methyl]benzoyl}-2-methylbenzenesulfonamide]
- inhibition at 1.05 µM ([1]; CONCENTRATION 1.05 micromolar, read-out: PERCENT INHIBITION @): 50%
- inhibition at 1.38 µM ([1]; CONCENTRATION 1.38 micromolar, read-out: PERCENT INHIBITION @): 50%
- inhibition at 1.4 µM ([1]; CONCENTRATION 1.4 micromolar, read-out: PERCENT INHIBITION @): 50%
- inhibition in vivo at 2 mg/kg ([2]; 2 mg/Kg): 10.4%
- inhibition in vivo at 10 mg/kg ([2]; 10 mg/Kg): 20.7%

Compound: O=C(NS(=O)(=O)C(F)(F)F)c1ccc(Cc2cn(C(c3ccccc3)c3ccccc3)c3ccc(Br)cc23)cc1 [Example 58, N-{4-[(1-benzhydryl-5-bromo-1H-indol-3-yl)methyl]benzoyl}(trifluoro)methanesulfonamide]
- inhibition at 1.65 µM ([1]; CONCENTRATION 1.65 micromolar, read-out: PERCENT INHIBITION @): 50%
- inhibition in vivo at 2 mg/kg ([2]; 2 mg/Kg): 13.8%
- inhibition in vivo at 10 mg/kg ([2]; 10 mg/Kg): 9.96%

Compound: O=C(Nc1cccc(C(=O)O)c1)C(=O)c1cn(Cc2ccc(Cc3ccccc3)cc2)c2ccccc12 [Example 59, 3-({2-[1-(4-benzylbenzyl)-1H-indol-3-yl]-2-oxoacetyl}amino)benzoic acid]
- inhibition at 6 µM ([1]; CONCENTRATION 6 micromolar, read-out: PERCENT INHIBITION @): 50%
- inhibition at 12.5 µM ([1]; read-out: PERCENT INHIBITION @): 90%
- inhibition in vivo at 5 mg/kg [2]: 2.9%

Compound: O=C(Nc1cccc(C(=O)O)c1)C(=O)c1cn(C(c2ccccc2)c2ccccc2)c2ccccc12 [Example 61, 3-{[2-(1-benzhydryl-1H-indol-3-yl)-2-oxoacetyl]amino}benzoic acid]
- inhibition at 10 µM ([1]; CONCENTRATION 10 micromolar, read-out: PERCENT INHIBITION @): 50%
- inhibition at 12.5 µM ([1]; read-out: PERCENT INHIBITION @): 54%
- inhibition in vivo at 5 mg/kg [2]: 18.3%

Compound: O=C(Nc1cccc(C(=O)O)c1)C(=O)c1cn(Cc2ccc(OCc3ccccc3)c(OCc3ccccc3)c2)c2ccccc12 [Example 63, 3-[(2-{1-[3,4-bis(benzyloxy)benzyl]-1H-indol-3-yl}-2-oxoacetyl)amino]benzoic acid]
- inhibition at 2.5 µM ([1]; CONCENTRATION 2.5 micromolar, read-out: PERCENT INHIBITION @): 70%
- inhibition at 7 µM ([1]; CONCENTRATION 7 micromolar, read-out: PERCENT INHIBITION @): 50%
- inhibition in vivo at 5 mg/kg [2]: 19.6%

Compound: Cc1ccc(S(=O)(=O)NC(=O)c2cccc(NC(=O)C(=O)c3cn(Cc4ccc(Cc5ccccc5)cc4)c4ccc(OCc5ccccc5)cc34)c2)cc1 [Example 76, 2-[1-(4-benzylbenzyl)-5-(benzyloxy)-1H-indol-3-yl]-N-[3-({[(4-methylphenyl)sulfonyl]amino}carbonyl)phenyl]-2-oxoacetamide]
- inhibition at 4 µM ([1]; CONCENTRATION 4 micromolar, read-out: PERCENT INHIBITION @): 50%
- inhibition in vivo at 5 mg/kg [2]: 14.8%

Further lines, with some results ahead:

- inhibition at 50 µM ([1]; read-out: PERCENT INHIBITION @): 47%
- inhibition at 72 µM ([1]; CONCENTRATION 72 micromolar, read-out: PERCENT INHIBITION @): 50%
- inhibition at 80 µM ([1]; CONCENTRATION 80 micromolar, read-out: PERCENT INHIBITION @): 50%
Compound: O=C(O)c1cccc(NCc2cn(C(c3ccccc3)c3ccccc3)c3ccc(NC(=O)C4CCCC4)cc23)c1 [Example 65, 3-[({1-benzhydryl-5-[(cyclopentylcarbonyl)amino]-1H-indol-3-yl}methyl)amino]benzoic acid]
- inhibition in vivo at 5 mg/kg [2]: 2.84%

- inhibition at 70 µM ([1]; CONCENTRATION 70 micromolar, read-out: PERCENT INHIBITION @): 50%
- PERCENT INHIBITION @ ([1]; CONCENTRATION 200 micromolar): 19%
- inhibition at 200 µM ([1]; CONCENTRATION 200 micromolar, read-out: PERCENT INHIBITION @): 15%
Compound: O=C(O)CN1CCN(Cc2cn(C(c3ccccc3)c3ccccc3)c3ccc(NC(=O)C4CCCC4)cc23)CC1 [Example 66, 2-[4-({1-benzhydryl-5-[(cyclopentylcarbonyl)amino]-1H-indol-3-yl}methyl)piperazino]acetic acid]
- inhibition in vivo at 5 mg/kg [2]: 25.3%

- inhibition at 100 µM ([1]; read-out: PERCENT INHIBITION @): 8%
- inhibition at 400 µM ([1]; read-out: PERCENT INHIBITION @): 31%
Compound: O=C(O)CC1C(=O)NCCN1Cc1cn(C(c2ccccc2)c2ccccc2)c2ccc(NC(=O)C3CCCC3)cc12 (stereo not shown) [Example 67, 2-[1-({1-benzhydryl-5-[(cyclopentylcarbonyl)amino]-1H-indol-3-yl}methyl)-3-oxo-2-piperazinyl]acetic acid]
- inhibition in vivo at 5 mg/kg [2]: 10.8%

- inhibition at 100 µM ([1]; read-out: PERCENT INHIBITION @): 9%
- inhibition at 400 µM ([1]; read-out: PERCENT INHIBITION @): 18%
Compound: O=C(Nc1ccc2c(c1)c(CNC(CO)C(=O)O)cn2C(c1ccccc1)c1ccccc1)C1CCCC1 (stereo not shown) [Example 68, 2-[({1-benzhydryl-5-[(cyclopentylcarbonyl)amino]-1H-indol-3-yl}methyl)amino]-3-hydroxypropanoic acid]
- inhibition in vivo at 5 mg/kg [2]: -4.3%

- inhibition at 48 µM ([1]; CONCENTRATION 48 micromolar, read-out: PERCENT INHIBITION @): 50%
- inhibition at 50 µM ([1]; read-out: PERCENT INHIBITION @): 60%
Compound: O=C(O)Cc1cn(Cc2ccccc2)c2ccc(-c3cc4ccccc4o3)cc12 [Example 80, 2-[5-(1-benzofuran-2-yl)-1-benzyl-1H-indol-3-yl]acetic acid]
- inhibition in vivo at 5 mg/kg [2]: 10.2%

- inhibition at 6.25 µM ([1]; CONCENTRATION 6.25 micromolar, read-out: PERCENT INHIBITION @): 61%
- inhibition at 6.5 µM ([1]; CONCENTRATION 6.5 micromolar, read-out: PERCENT INHIBITION @): 50%
Compound: O=C(O)c1ccc(CN2C(=O)S/C(=C/c3cn(CCCOc4cccc(Cc5ccccc5)c4)c4ccccc34)C2=O)cc1 [Example 82B, 4-{[5-((E)-{1-[3-(3-benzylphenoxy)propyl]-1H-indol-3-yl}methylidene)-2,4-dioxo-1,3-thiazolan-3-yl]methyl}benzoic acid]
- inhibition in vivo at 5 mg/kg [2]: 4.94%
